US8097656B2, “Nitrogenated trans-stilbene analogs, method for the obtention and medical applications thereof” (Dominion Pharmakine S.L, priority 2005, dated 2012)

How the values were obtained:
MA375 cells [1] = test: In vitro proliferation of MA375 cells in response to human HSC soluble factors; assay type: cell-based; conditions: for Increase in proliferation of A375 cells by MC-CEH (in words): 2.5 μM for 30 minutes before MC-CEH, 48 hours; for Proliferation of MA375 cells in response to human HSC soluble factors (No. cells per well): 2.5 μM, 30 min before HSC-conditioned media, 48 h, control 9000 ± 60, treatment alone 17500 ± 50
Procedure: Culture of B16 (MB16) and A375 (MA375) melanoma cells. The MB 16 (B16F10 subline) murine tumor cells were cultured at 37° C., with 5% CO2 atmosphere in Dulbecco's modified Eagle's medium (DMEM)-HCO3 penicillin (100 U/ml), streptomycin (100 μg/ml), supplemented with 5% fetal bovine serum and adjusted to pH 7.4. The cells were maintained and subcultured according to the method described by Vidal-Vanaclocha et al. (1994) [Vidal-Vanaclocha, F., Amézaga, C., Asumendi, A., Kaplanski, G. & Dinarello, C. A. Interleukin-1 receptor blockade reduces the number and size of murine B16 melanoma hepatic metastases. Cancer Research, 1994, 54, 2667-2672]. The conditioned media were obtained from subconfluyent cultures maintained in absence of FBS for 24 hours.
In vitro Melanoma cell proliferation test. The MB16 or MA375 cells are seeded (2500 cells/well/200 μl) in DMEM medium (Dulbecco's modified Eagle's medium) with 10% fetal bovine serum (FBS). Once adhered, they were washed to remove the FBS and fresh medium was added in the presence or absence of 2.5 μM of the compounds to be tested. In the experiments with MA375, the compound azaresveratrol (see Table 4) was used, and in the experiments with MB16 cells, the compounds azaresveratrol, JE1:2, JE2:1 or JE2:2 (see FIG. 3) were used. Thirty (30) minutes later, 10 ng/ml of IL-18 or HSC-conditioned media (murines in the case of B16 and human ones in the case of A375) were added to some wells, and the plates were incubated for 48 hours at 37° C. with 5% CO2 Upon completion of the incubation period, the cells were fixed with […] for 1 hours, were washed and were allowed to dry in the incubator at 50° C. for 30 minutes. In following, 100 μl/well of sulforhodamine 101 (0.4% p/v) was added and they were incubated at room temperature in the dark for 30 minutes. After washing, 200 μl/well of Tris base 10 mM pH 10.5 was added and the fluorescence was measured by means of a 530 nm, 620 nm emission excitation filter plate fluorescence reader. The number of cells was calculated by extrapolating said fluorescence data on a standard straight line previously obtained based on the fluorescence emitted in an increasing number of cells.

MA375 cells [2] = test: MA375 cell adhesion to immobilized VCAM-1 substrates; assay type: cell-based, human; conditions: 2.5 μM; for Adhesion of MA375 cells with H2O2 to immobilized VCAM-1 (% cells adhered): 10 μM H2O2, control 21.0 ± 4, H2O2 alone 41.3 ± 4.2; for Adhesion of MA375 cells treated with IL-18 to immobilized VCAM-1 (% cells adhered): control 21.0 ± 4, IL-18 alone 31.5 ± 3.2
Procedure: MB16 and MA375 cell adhesion to immobilized VCAM-1 substrates. The MB16 and MA375 cell adhesion tests were conducted on immobilized VCAM-1 substrates (2 μg/ml of recombinant human VCAM-1, R&D Systems, Minneapolis, Minn.) on 96-well plates. To avoid non-specific attachment to the plastic, 0.5% BSA dissolved in PBS was added to the wells for 2 hours at ambient temperature prior to conducting the adhesion test. The melanoma cells were preincubated with 2.5 μM of the compounds to be tested (azaresveratrol, see Table 2; JE1:2, JE2:1 and JE2:2 see FIG. 2; JEM2:2-01 and JEM2:1-02 see FIG. 7; YEF02, YEF03, YEF07, YEF05B, YEF07B and YEF05H. see FIG. 9) for 30 minutes, to which 10 μM of hydrogen peroxide or 10 ng/ml of IL-18 were added, respectively for a further 24 hours. Afterward, the cells were washed and marked with the BCECF-AM fluorescent probe (carboxyfluorescein, 2′,7′-bis-(2-carboxy-ethyl)-5-(6)carboxyfluorescein aminoxymethyl ester). Thirty minutes later, a washing process was performed to remove the excess fluorochromium, the number of viable cells being calculated by means of the trypan blue exclusion test and (5×10^4 cells/well) being added to the 96-well plate. The co-culture plates were incubator-incubated at 37° C. for 1 hours. The percentage of cellular adhesion was calculated by measuring the fluorescence emitted by the adhered cells (obtained after washing the plate) with regard to the fluorescence emitted by the total number of cells added. The results in the figures are given in values related to the adhesion percentages of the untreated melanoma cells.

HSE cells = test: Migration of HSE cells treated with MC-MA375 (modified Boyden chamber); assay type: cell-based, human; conditions: for Increase in migration of HSE induced by MC-A375 (in words): 12.5 μM 30 min prior to MC-A375; for Migration of HSE's treated with MC-MA375 (No. cells per field): 12.5 μM, 30 min before MC-MA375, 24 h, control 10.0 ± 4, treatment alone 35.0 ± 8.0
Text: (§1) isolation of primary human cultures of hepatic sinusoidal endothelial (HSE) hepatic stellate cells (HSCs). The primary cultures of human HSE and HSC cells were obtained by non-tumoral hepatic tissue serial profusion with collagenase and pronase solutions, followed by Nycodenz gradient and seeded on 24-well plates (0.5×10^4 cells/cm^2) in DMEM. supplemented with 10% FBS.
(§2) Human HSC and HSE cell migration tests (see Table 3). Primary cultured hepatic endothelial cells (25×10^5) or hepatic stellate cells (2×10^4) were seeded in the upper compartment of modified Boyden chambers equipped with a polycarbonate filter of an 8 μm pore size. Some cells were incubated in the presence or absence of 12.5 μM of azaresveratrol, 30 minutes prior to adding conditioned tumor medium. Twenty-four (24) hours later (in the case of the endothelial cells) or 4 hours later (in the case of hepatic star cells) the number of cells having passed through the membrane was determined. The cells were fixed, were stained with hematoxylin eosine and were counted under the microscope (20×) in 5 fields per well.

human HSC = test: Migration of human HSCs treated with MC-MA375 (modified Boyden chamber); assay type: cell-based; conditions: for Increase in migration of HSC induced by MC-A375 (in words): 12.5 μM 30 min prior to MC-A375; for Migration of human HSC's treated with MC-MA375 (No. cells migrated per field): 12.5 μM, 30 min before MC-MA375, 4 h, control 10.0 ± 4, treatment alone 91.5 ± 19
Text: as §1, §2

SMILES | Increase in proliferation of A375 cells by MC-CEH (in words) (MA375 cells [1]) | Proliferation of MA375 cells in response to human HSC soluble factors (No. cells per well) (MA375 cells [1]) | Adhesion of MA375 cells with H2O2 to immobilized VCAM-1 (% cells adhered) (MA375 cells [2]) | Adhesion of MA375 cells treated with IL-18 to immobilized VCAM-1 (% cells adhered) (MA375 cells [2]) | Increase in migration of HSE induced by MC-A375 (in words) (HSE cells) | Migration of HSE's treated with MC-MA375 (No. cells per field) (HSE cells) | Increase in migration of HSC induced by MC-A375 (in words) (human HSC) | Migration of human HSC's treated with MC-MA375 (No. cells migrated per field) (human HSC)
Oc1ccc(/N=C/c2cc(O)cc(O)c2)cc1 [azaresveratrol, 5-((E)-(4-Hydroxyphenylimino)methyl)benzene-1,3-diol] | prevented | 9250 ± 65 | 4.5 ± 0.3 | 5.0 ± 0.3 | abolished | 15.5 ± 30 | abolished | 6.0 ± 1.3 No. cells migrated per field
Oc1ccc(C=Cc2cc(O)cc(O)c2)cc1 [resveratrol, reference compound] | prevented | 9050 ± 100 | 6.5 ± 0.5 | 5.5 ± 0.4 | abolished | 13.5 ± 5.0 | abolished | 6.5 ± 1.4 No. cells migrated per field
